Experimental data: patent US6432883B1, “Methods of treating plants with glycolic acid” (Emerald BioAgriculture Corporation, priority 2000, dated 2002)
Marks after values point to notes of the source that are not given here.

Assays:
Sclerotinia minor [1] = assay: Colony radius of plant pathogen on amended potato dextrose agar; type: cell-based; details: in PDA, 4 days, about 23° C., FIG. 5
Text: Sclerotinia minor culture SaM-18 was received from Krishna Subbarro, Ph.D., Univ. Calif., Davis. Potato dextrose agar (PDA) powder was purchased from Baltimore Biological Laboratory, Inc. (BBL), ammonium glycolate and glycolic acid from DuPont Specialty Chemicals and BreakThru® surfactant from Goldschmidt Chemical Corp.
PDA was made, poured into sterile disposable petri dishes (100×15 mm) and inoculated with S. minor sclerotia to start new cultures on day zero. These cultures had reached an appropriate stage of maturation for use for use in the test after two weeks of growth. Multiple 1 liter containers of PDA were made and autoclaved on day 14. These PDA containers remained in the circulating water bath at 46° C. until the solutions were ready for addition (about 2 hrs.). The glycolic acid-containing compositions were added to the 46° C. PDA through a syringe-tip 0.2 μm-pore sterile filtration disc in a positive laminar-flow sterile hood and thoroughly mixed before returning to the 46° C. water bath to await pouring. Stacks of 22 dishes were poured for each medium type and allowed to solidify and cool overnight.
On day 15, soft, white to gray, sclerotial clumps of hyphae were picked from the culture dishes with heat sterilized forceps and one clump was transferred to the center of each test medium dish. Twenty dishes of each inoculated medium were stacked and replaced into the plastic sleeves they were originally packaged in for incubation at room temperature (about 23° C.). After 4 days of growth, some of the cultures had just reached the edges of the medium. The radius of each colony was measure in mm.
Treatments were water controls, 0.05% surfactant controls, 5, 15, 50, 75 and 100 ppm of glycolic acid (F12) and 5, 15, 50, 100 and 750 ppm of ammonia-neutralized glycolic acid (F18; i.e., ammonium glycolate).

cabbage = assay: Cabbage cold shock and heat treatment: fresh and dry weights; type: in vivo; design: Avg. Fresh Weights ± SD / Avg. Dry Weights ± SD: unit not given here
Text: Seeds of Heads Up cabbage were obtained from Harris Seeds, Rochester, N.Y. and grown in 7″×5¼″×2¼″ (17.78 cm×13.34×5.72 cm) Kord inserts (Park Seeds, Greenwood, S.C.) containing Bacto potting soil (Michigan Peat Company, Houston, Tex.). After plants had germinated, cabbage seedlings were thinned to six plants per insert. Inserts were kept in 12″×8¾″ (30.48 cm×22.23 cm) perma nest trays (Park Seed) with two inserts per tray. Each treatment consisted of three replicate trays containing a total of eighteen cabbage plants. After 12 days, some of the plant were sprayed with Glypure® at 25 ppm, 100 ppm, and 200 ppm. Treated plants were given a second application of Glypure® 7 days later. Untreated and treated plants were subjected to freeze and heat shock treatments 24 hours later. Cold shock was administered by exposing plants to −3° C. for 2 hours and 20 minutes. Heat treatment was provided by placing plants in an oven for 5 hours at 46.5° C. One week following the temperature treatments, the plants were harvested and the fresh and dry weights were determined.

[2] = system: Erysiphe graminis/Ooidium; assay: Wheat pathogen stress: disease index on leaves and heads; type: in vivo; details: for Disease Index Heads / Disease Index Leaves: wheat, (1-7 severity rating)(% incidence)/100
Procedure: Kulm wheat seed, lot CR, was purchased from Albert Lea Seed House, Albert Lea, Minn. and grown 100 plants per 1 gallon pot, 3 pots per experimental unit and 1 experimental unit per each of 6 replications. The plants were spray-treated first at late-tillering to jointing and again at “in boot” to anthesis with 8 ml solution per pot. Aerial application of the pathogen stress (Erysiphe graminis/Ooidium conidia cultured on other Kulm wheat plants infected by incoming natural inoculum) was made to the plants at 14 days following the first treatment application, in addition to other naturally occurring inoculum.
Treatments consisted of non-inoculated and inoculated groups of non-treated (NTC), water and 0.05% surfactant-blank (SB) controls and 5, 25, and 50 ppm of glycolic acid.
Disease assessment was made 3 days prior to head harvesting using a 1-7 based severity scale and % incidence. A disease index [(1-7 based severity rating)(% incidence)/100] was created to better describe the compound effect. The results in Table 3 below show the data for each treatment and the rating scale definitions.

Sclerotinia minor [3] = assay: Excised lettuce leaves, post-harvest pathogen stress: disease index; type: in vivo; details: for Disease Index [(severity)(% incidence)/100]: 3 days post-inoculation
Text: Waldmann's MTO dark green Grand Rapids leaf lettuce seed, lot# 15529, was purchased from Johnny's Selected Seeds, Albion, Me., and broadcast seeded into 10×20×2′ flats. Circular steel-blue blotter papers (Anchor Paper Co, St. Paul, Minn.) were fitted into disposable petri dishes. Treatments consisted of non-inoculated and inoculated groups of non-treated (NTC), water and 0.01% surfactant-blank (SB) controls and 10, 25, 75,150, 500 and 1000 ppm of glycolic acid.
Blotters were saturated with 4.5 ml sterile tap water. Individual leaves (20) were excised and placed into a treatment solution for 5 seconds or left non-treated. Excess fluid was removed from the leaf surface. These leaves were then placed singly, 1 leaf per dish and adaxial side up, on the moist blotters. Dish lids were replaced and dishes stacked, bagged and returned to the petri dish box for 24 hours dark storage at room temperature (68-72° F.).
Inoculum (Sclerotinia minor hyphal fragments and sclerotia) was grown on potato dextrose agar (PDA) plates until the sclerotia were black and hard. These were blended into a paste with non-inoculated PDA and sterile tap water. A small spot of inoculum paste containing hyphal fragments and 2-3 sclerotia was dotted onto the center of 16 of the 20 leaf pieces per treatment stack 24 hours after test substance application.
Due to the nature of Sclerotinia as a pathogen, disease is generally an all-or-nothing phenomenon. Therefore, it is necessary to assess both disease incidence and disease severity to give an accurate representation of the disease progression. Disease severity assessment was made at 3 days±2 hours post-inoculation by measuring the radius of colonized tissue in mm. Disease incidence was assessed as the presence or absence of infection (number of diseased leaves/ number of leaves tested) 100=% incidence. Multiplying the average severity by the % incidence and dividing by 100 then combined both evaluations into one assessment number and created a disease index value. The results in Table 5 below show this value for each treatment.

[4] = Cold Stress (−3° C., 2 hours 20 minutes), 25 ppm
[5] = Cold Stress (−3° C., 2 hours 20 minutes), 200 ppm
[6] = Heat Stress (46.5° C., 5 hours), 25 ppm
[7] = Heat Stress (46.5° C., 5 hours), 200 ppm

`O=C(O)CO` [glycolic acid] was tested, and the “growth of Sclerotinia minor (colony radius) compared to controls” value (Sclerotinia minor [1]) was “statistically significantly increased the growth”, the “reduction in fresh and dry weights caused by the adverse temperatures, versus untreated plants” value (cabbage; 200 ppm) was “statistically significantly lower” and the “Avg. Dry Weights ± SD” value (cabbage; [4]) was 3.1 ± 0.1. The “Avg. Fresh Weights ± SD” value (cabbage; [4]) was 28.6 ± 2.7, the “Avg. Dry Weights ± SD” value (cabbage; [5]) was 3.2 ± 0.2 and the “Avg. Fresh Weights ± SD” value (cabbage; [5]) was 31.4 ± 1.3. For the same molecule, the “Avg. Dry Weights ± SD” value (cabbage; [6]) was 2.5 ± 0.3, the “Avg. Fresh Weights ± SD” value (cabbage; [6]) was 10.2 ± 2.6 and the “Avg. Dry Weights ± SD” value (cabbage; [7]) was 3.5 ± 0.1. The “Avg. Fresh Weights ± SD” value (cabbage; [7]) was 15.2 ± 0.6, the “disease severity observed in wheat heads versus control wheat” value ([2]; 5 ppm and 25 ppm, α=0.05) was “statistically significant (α=0.05) decrease” and the “Disease Index Heads” value ([2]; 5 ppm spray) was 2.5*. For the same molecule, the “Disease Index Leaves” value ([2]; 5 ppm spray) was 7.6*, the “Disease Index Heads” value ([2]; 25 ppm spray) was 13.4* and the “Disease Index Leaves” value ([2]; 25 ppm spray) was 7.0*. For the same molecule, the “Disease Index Heads” value ([2]; 50 ppm spray) was 18.6*, the “Disease Index Leaves” value ([2]; 50 ppm spray) was 36.9 and the “disease severity in wheat leaves versus control wheat” value ([2]; all glycolic acid treated wheat, α=0.05) was “statistically significant (α=0.05) decrease”. For the same molecule, the “Disease Index [(severity)(% incidence)/100]” value (Sclerotinia minor [3]; 10 ppm leaf dip) was 1.2, the “disease severity versus control lettuce” value (Sclerotinia minor [3]; 25 ppm and 75 ppm, lettuce leaves, α=0.05) was “statistically significant (α=0.05) decrease” and the “Disease Index [(severity)(% incidence)/100]” value (Sclerotinia minor [3]; 25 ppm leaf dip) was 0.1*. For the same molecule, the “Disease Index [(severity)(% incidence)/100]” value (Sclerotinia minor [3]; 75 ppm leaf dip) was 0.5*, the “Disease Index [(severity)(% incidence)/100]” value (Sclerotinia minor [3]; 150 ppm leaf dip) was 1.3 and the “Disease Index [(severity)(% incidence)/100]” value (Sclerotinia minor [3]; 500 ppm leaf dip) was 1.1. For the same molecule, the “Disease Index [(severity)(% incidence)/100]” value (Sclerotinia minor [3]; 1000 ppm leaf dip) was 2.0.
